Measurements taken from patent US20200163938A1, “PHARMACEUTICAL COMPOSITION COMPRISING IRON CHELATOR EXHIBITING ANTITUMOR ACTIVITY, ANTIBACTERIAL ACTIVITY AND/OR ANTIVIRUS ACTIVITY, AND HAVING REDUCED SIDE EFFECTS” (priority 2017, published 2020).
Entries after “also recorded” stand apart in the source; their conditions may differ.

How the values were obtained:
[1] = test system: human breast cancer cell line MCF-7; test: Antitumor effects, cell viability (XTT method); assay type: cell-based; conditions: FIG. 9
Description: (§1) The antitumor effects of the chelating agents of test groups 1 to 10 on each of human lung cancer cell line A549, human liver cancer cell line PLC, and human colon adenocarcinoma cell line HCT116 were confirmed. A549 cells or PLC cells were seeded at 3000 cells/well, and HCT116 cells were seeded at 6000 cells/well. After 24 hours, the fetal bovine serum (FBS) concentration was changed from 10% to 1%, each compound of the test groups 1 to 10 was introduced into medium. Cell viability was confirmed after 48 hours by the Trypan blue method, or, cell viability was confirmed after 48 hours by performing medium exchange and then after 24 hours by performing the XTT method. Deferoxamine mesylate (Desferal (Trademark)) was used as a positive control. Results are as depicted in FIGS. 1A, 1B, 2 and 3.
(§2) Moreover, similarly to the above experiment on antitumor effects, the antitumor effects of the chelating agent of test group 6 or 10 on each of human breast cancer cell line MCF-7 and human oral squamous cell carcinoma HSC-2 were confirmed.

[2] = test system: human oral squamous cell carcinoma HSC-2; test: Antitumor effects, cell viability (XTT method); assay type: cell-based; conditions: FIG. 10
Description: as §1, §2

HSC-2 cells [3] = test: Apoptosis induction, TUNEL staining; assay type: cell-based, human; conditions: 100 μg/mL, 48 hours, FIG. 11A
Description: (§3) Furthermore, the apoptosis-inducing effects of the chelating agents of test groups 6 and 10 on tumors were confirmed. First, 100 μg/mL of the chelating agent of test group 6 or 50 μg/mL of the chelating agent of test group 10 was added to HSC-2 cells in a culture solution. After 48 hours of reaction, TUNEL Assay was carried out. Specifically, apoptosis induction was evaluated by the TUNEL staining method using a MK500 in situ Apoptosis Detection Kit (Takara Bio Inc.).

HCT116 cells = test: Apoptosis induction, TUNEL staining; assay type: cell-based, human; conditions: 10 μg/mL, 48 hours, FIG. 11B
Description: as §3
Similarly, the apoptosis-inducing effects of the chelating agent of test group 6 or 10 on HCT116 cells were confirmed. 10 μg/mL of the chelating agent of test group 6 was added and 6.5 µg/mL of the chelating agent of test group 10 was added to the cells. After 48 hours of reaction, TUNEL staining was carried out similarly to the above.

A549 cells [4] = test: Apoptosis induction, TUNEL staining; assay type: cell-based, human; conditions: 100 μg/mL, 48 hours, FIG. 11C
Description: as §3
Further, the apoptosis-inducing effects of the chelating agent of test group 6 or 10 on A549 cells were confirmed. 100 μg/mL of the chelating agent of test group 6 was added and 50 μg/mL of the chelating agent of test group 10 was added to the cells. After 48 hours of reaction, TUNEL staining was carried out similarly to the above.

A549 cells [5] = test: Western blot of apoptosis-related factors; assay type: cell-based, human; conditions: A549 cell lysate; FIG. 12
Text: (§4) The cell lysate of each type of cells treated with the chelating agents of test groups 6 and 10 was Western-blotted, and then an increase or a decrease in apoptosis-related factors in treated cells was confirmed using the indicated antibodies. […] Concentration-dependent apoptosis induction was also biochemically confirmed.

HSC-2 cells [6] = test: Western blot of apoptosis-related factors; assay type: cell-based, human; conditions: HSC-2 cell lysate; FIG. 12
Text: as §4

MCF-7 cells = test: Western blot of apoptosis-related factors; assay type: cell-based, human; conditions: MCF-7 cell lysate; FIG. 12
Text: as §4

[7] = test system: subcutaneously-transplanted HCT116 cells; assay type: in vivo, nude mice (BALB/c nu/nu); conditions: mouse, in vivo, 200 mg/kg/day
Description: Next, the antitumor effects of the chelating agents of test groups 6 and 10 on HCT116-cell subcutaneous transplantation model mice, into which HCT116 cells had been subcutaneously transplanted, were confirmed. Mice prepared herein were nude mice (BALB/c nu/nu, 6 weeks old: Clea Japan Inc.). HCT116 cells were adjusted at 3×10^6/mouse, and then mixed with Matrigel (BD Biosciences) at 1:1. The thus obtained mixture was administered to mice, thereby preparing subcutaneous tumors. The dosage was 200 mg/kg/day (5 times/week administration). […] Tissue sections of HCT116 cells subcutaneously transplanted into the test group 10 administration group were prepared, and then hematoxylin-eosin (HE) staining, and TUNEL staining were performed by the above-mentioned method.

[8] = test system: C. albicans (ATCC10231; Candida albicans); test: Minimum growth inhibition concentration (MIC); assay type: cell-based; conditions: 24 hours
Description: (§5) The dilution series of the chelating agent of each test group was prepared according to a standard method, microbes were inoculated, and then 24 hours later, the microbial growth was confirmed, thereby determining the minimum growth inhibition concentration of the chelating agent of each test group. Microbes used herein were S. aureus (ATCC6538; Staphylococcus aureus), P. aeruginosa (ATCC9027; Pseudomonas aeruginosa) and C. albicans (ATCC10231; Candida albicans). Drugs used herein were oxacillin, vancomycin and deferasirox as positive controls.

[9] = test system: P. aeruginosa (ATCC9027; Pseudomonas aeruginosa); test: Minimum growth inhibition concentration (MIC); assay type: cell-based
Description: as §5

[10] = test system: S. aureus (ATCC6538; Staphylococcus aureus); test: Minimum growth inhibition concentration (MIC); assay type: cell-based
Description: as §5

S. mutans (ATCC25175) = test: Antibacterial activity, turbidity and ATP assay; assay type: cell-based, Streptococcus mutans; conditions: aerobic culture 37° C., 18 hours; FIGS. 6A, 6B
Description: First, the antibacterial activity of a dental caries-causing bacterium, S. mutans (ATCC25175) was examined. With the use of a liquid medium prepared by adding a yeast extract and the chelating agent of each test group to TSB medium, aerobic culture was performed at 37° C. for 18 hours, and then turbidity was found from optical density (OD570 or 595 nm). Cell activity was measured using an ATP assay kit (Kikkoman Corporation). Results were as depicted in FIGS. 6A and 6B.

[11] = test system: A. actinomycetemcomitans AaY4 (ATCC); test: Antibacterial activity, turbidity and ATP assay; assay type: cell-based, Aggregatibacter actinomycetemcomitans; conditions: anaerobic culture 37° C., 18 hours; FIGS. 7A, 7B
Description: A bacterial strain of one of periodontopathic bacteria, A. actinomycetemcomitans, used herein was AaY4 (ATCC). With the use of a liquid medium prepared by adding a yeast extract, sodium bicarbonate and the chelating agent of each test group to TSB medium, anaerobic culture (Anaeropack-anaerobic) was performed at 37° C. for 18 hours. Turbidity was measured using absorbance (OD570 or 595 nm), and cell activity was measured using an ATP assay kit. Results were as depicted in FIGS. 7A and 7B.

SMILES: Cl.OCC1OC(O)C(NCc2ccc(O)c(O)c2O)C(O)C1O (stereo not shown) [Test group 6]
- antitumor effects on MCF-7 (cell viability) [1]: exhibit antitumor effects
- antitumor effects on HSC-2 (cell viability) [2]: exhibit antitumor effects
- apoptosis-inducing effects (TUNEL staining) (HSC-2 cells [3]): green-stained cells indicating apoptosis were confirmed
- apoptosis-inducing effects (TUNEL staining) (HCT116 cells): green-stained cells indicating apoptosis were confirmed
- apoptosis-inducing effects (TUNEL staining) (A549 cells [4]): green-stained cells (FITC positive cells) indicating apoptosis were confirmed
- PARP cleaved fragments and caspase-3-cleaved fragments (Western blot) (A549 cells [5]): PARP cleaved fragments and caspase-3-cleaved fragments were confirmed
- PARP cleaved fragments and caspase-3-cleaved fragments (Western blot) (HSC-2 cells [6]): PARP cleaved fragments and caspase-3-cleaved fragments were confirmed
- PARP cleaved fragments and caspase-3-cleaved fragments (Western blot) (MCF-7 cells): PARP cleaved fragments and caspase-3-cleaved fragments were confirmed
- body weight change [7]: no body weight change due to administration was observed
- MIC C. albicans [8]: >800 µg/mL
- MIC P. aeruginosa ([9]; 24 hours): 400 µg/mL
- antimicrobial effects on P. aeruginosa (in words) ([9]; from Table 10): exhibited antimicrobial effects
- MIC S. aureus ([10]; 24 hours): 400 µg/mL
- antimicrobial effects on S. aureus (in words) ([10]; from Table 10): strong antimicrobial effects
- antimicrobial effects on S. mutans (turbidity, ATP activity) (S. mutans (ATCC25175)): strong antimicrobial effects; also recorded: very strong antibacterial activity
- antimicrobial effects on A. actinomycetemcomitans (turbidity, ATP activity) [11]: strong antimicrobial effects
